Source: the supplement of paper PMC11451515

System: P12-Ichikawa
Experiment: cell viability relative to DMSO control; higher = less cytotoxic
Settings: 48 h
How it was run: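 In 1536-well plates, 5 μl of leukemia cells were seeded per well: 500 cells/well for NOMO1 or SEM and 1000 cells/well for P12-Ichikawa. Each line had first been adapted for at least four passages in each medium. Library compounds in DMSO were pin-dosed at 11 threefold concentrations between 47 μM and 0.79 nM, and CellTiter-Glo One luminescence was read after 48 h at 37°C. Viability is a per-plate percentage relative to DMSO wells, with cell-free wells as background.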

[1] = HPLM + 10% dialyzed FBS, 0.000781 µM
[2] = HPLM + 10% dialyzed FBS, 0.00234 µM
[3] = HPLM + 10% dialyzed FBS, 0.00702 µM
[4] = HPLM + 10% dialyzed FBS, 0.0211 µM
[5] = HPLM + 10% dialyzed FBS, 0.0632 µM
[6] = HPLM + 10% dialyzed FBS, 0.19 µM
[7] = HPLM + 10% dialyzed FBS, 0.569 µM
[8] = HPLM + 10% dialyzed FBS, 1.71 µM
[9] = HPLM + 10% dialyzed FBS, 5.12 µM
[10] = HPLM + 10% dialyzed FBS, 15.4 µM
[11] = HPLM + 10% dialyzed FBS, 46.1 µM
[12] = RPMI 5 mM glucose + 10% FBS, 0.000781 µM
[13] = RPMI 5 mM glucose + 10% FBS, 0.00234 µM
[14] = RPMI 5 mM glucose + 10% FBS, 0.00702 µM
[15] = RPMI 5 mM glucose + 10% FBS, 0.0211 µM
[16] = RPMI 5 mM glucose + 10% FBS, 0.0632 µM
[17] = RPMI 5 mM glucose + 10% FBS, 0.19 µM
[18] = RPMI 5 mM glucose + 10% FBS, 0.569 µM
[19] = RPMI 5 mM glucose + 10% FBS, 1.71 µM
[20] = RPMI 5 mM glucose + 10% FBS, 5.12 µM
[21] = RPMI 5 mM glucose + 10% FBS, 15.4 µM
[22] = RPMI 5 mM glucose + 10% FBS, 46.1 µM
[23] = RPMI 5 mM glucose + 10% dialyzed FBS, 0.000781 µM
[24] = RPMI 5 mM glucose + 10% dialyzed FBS, 0.00234 µM
[25] = RPMI 5 mM glucose + 10% dialyzed FBS, 0.00702 µM
[26] = RPMI 5 mM glucose + 10% dialyzed FBS, 0.0211 µM
[27] = RPMI 5 mM glucose + 10% dialyzed FBS, 0.0632 µM
[28] = RPMI 5 mM glucose + 10% dialyzed FBS, 0.19 µM
[29] = RPMI 5 mM glucose + 10% dialyzed FBS, 0.569 µM
[30] = RPMI 5 mM glucose + 10% dialyzed FBS, 1.71 µM
[31] = RPMI 5 mM glucose + 10% dialyzed FBS, 5.12 µM
[32] = RPMI 5 mM glucose + 10% dialyzed FBS, 15.4 µM
[33] = RPMI 5 mM glucose + 10% dialyzed FBS, 46.1 µM

Row | Structure (SMILES) | cell viability [1] [%] | cell viability [2] [%] | cell viability [3] [%] | cell viability [4] [%] | cell viability [5] [%] | cell viability [6] [%] | cell viability [7] [%] | cell viability [8] [%] | cell viability [9] [%] | cell viability [10] [%] | cell viability [11] [%] | cell viability [12] [%] | cell viability [13] [%] | cell viability [14] [%] | cell viability [15] [%] | cell viability [16] [%] | cell viability [17] [%] | cell viability [18] [%] | cell viability [19] [%] | cell viability [20] [%] | cell viability [21] [%] | cell viability [22] [%] | cell viability [23] [%] | cell viability [24] [%] | cell viability [25] [%] | cell viability [26] [%] | cell viability [27] [%] | cell viability [28] [%] | cell viability [29] [%] | cell viability [30] [%] | cell viability [31] [%] | cell viability [32] [%] | cell viability [33] [%]
1 | CC1=C(C)C(=O)C(C(CCCCCC(=O)O)c2ccccc2)=C(C)C1=O (stereo not drawn) | 76.1 | 91.6 | 83.8 | 76.4 | 80.6 | 84.5 | 73.8 | 83.9 | 86.2 | 84.5 | 70.6 | 86 | 91.2 | 96.2 | 94.5 | 103 | 97.5 | 82.3 | 96.1 | 72.9 | 66.7 | 56.6 | 70.5 | 77.9 | 71.7 | 84.1 | 84.4 | 85.8 | 79.2 | 80.3 | 67.4 | 72 | 52.1
2 | CC(C)c1noc(N2CCC(COc3ccc(-c4ccc([S+](C)(=O)[O-])cc4)nc3)CC2)n1 | 117 | 117 | 113 | 120 | 122 | 114 | 112 | 106 | 103 | 98.7 | 103 | 118 | 120 | 119 | 112 | 119 | 109 | 110 | 118 | 111 | 113 | 101 | 117 | 105 | 120 | 108 | 114 | 110 | 106 | 110 | 100 | 112 | 97.4
3 | O=C1c2ccccc2-[n+]2ccc3c([nH]c4ccccc43)c21 | 101 | 108 | 112 | 105 | 105 | 106 | 101 | 105 | 95.4 | 2.96 | 3.56 | 98.1 | 106 | 105 | 114 | 104 | 107 | 107 | 112 | 101 | 2.99 | 2.29 | 102 | 115 | 111 | 108 | 107 | 111 | 100 | 113 | 107 | 3.39 | 2.85
4 | O=C(C=CC#Cc1cccc(N[S+](=O)([O-])c2ccccc2)c1)NO | 110 | 113 | 118 | 116 | 119 | 114 | 103 | 92.7 | 3.67 | 3.02 | 3 | 113 | 119 | 116 | 123 | 117 | 116 | 122 | 75.6 | 6.32 | 3.14 | 2.9 | 113 | 114 | 117 | 121 | 117 | 117 | 113 | 80.4 | 3.83 | 2.6 | 2.95
5 | FC1=C(C=C(C\C2=N\NC(=O)C3=C2C=CC=C3)C=C1)C(=O)N4CCN(CC4)C(=O)C5CC5 | 81.1 | 90.8 | 94 | 96.2 | 99 | 87.4 | 95.6 | 85.7 | 85.5 | 88.3 | 49.4 | 81.6 | 84.1 | 86.7 | 88.2 | 88.7 | 86.5 | 86.1 | 82.5 | 83.8 | 72.1 | 38.9 | 78.9 | 87.3 | 86.5 | 87.1 | 91.2 | 93.2 | 82 | 82.1 | 78.9 | 73 | 53.9
6 | NC\1=N\C(=O)N(\C=C1)[C@@H]2O[C@H](CO)[C@@H](O)[C@@H]2O | 26.1 | 22.9 | 9.22 | 8.83 | 4.99 | 6.11 | 6.14 | 4.49 | 3.27 | 2.43 | 0.778 | 14.9 | 15.4 | 9.94 | 5.41 | 3.93 | 3.94 | 3.63 | 2.08 | 1.73 | 1.04 | 0.402 | 20 | 16.6 | 11.1 | 10.5 | 7.45 | 6.15 | 7.46 | 5.67 | 3.34 | 3.72 | 1.87
7 | CC(C)(C#N)c1cc(Cn2cncn2)cc(C(C)(C)C#N)c1 | 120 | 119 | 117 | 119 | 117 | 116 | 115 | 115 | 113 | 108 | 97 | 130 | 118 | 121 | 129 | 120 | 124 | 128 | 131 | 113 | 112 | 112 |  |  |  |  |  |  |  |  |  |  | 
8 | Cc1nn(Cc2ccccc2Cl)c(C)c1CN(C)CC(O)COc1ccc(Cl)cc1 (stereo not drawn) | 110 | 101 | 105 | 104 | 108 | 108 | 102 | 97.4 | 104 | 95.1 | 59.6 | 93.9 | 94.5 | 93 | 108 | 97 | 101 | 94.5 | 91.5 | 92.1 | 83.7 | 42.8 | 94 | 98.3 | 95.2 | 95.7 | 98.2 | 92.6 | 94.9 | 92.1 | 89.4 | 89.1 | 39.6
